Article PMC12040169 (PLOS Biology, 2025)

Test: in vitro
Settings: human, hela cells, % viability

| SMILES | viability at 28.5 h, 10 µM |
| --- | --- |
| CCOc1ccc2nc(NS(=O)(=O)c3cc(C(=O)O)c(Cl)cc3Cl)sc2c1 [CBK299789] | 109% |
| CCCCOc1ccc(-c2nonc2NC(=O)COc2ccccc2Cl)cc1 [CBK299792] | 117% |
| O=C(O)c1cccc(S(=O)(=O)Nc2nc3ccc(Cl)cc3s2)c1 [CBK299793] | 103% |
| CC(=O)c1cccc(NC(=O)Nc2ccc(S(=O)(=O)Nc3cc(C)on3)cc2)c1 [CBK299794] | 111% |
| CC(C)(CC(=O)O)CC(=O)Nc1ccc(-c2nc3ccccc3s2)cc1 [CBK299796] | 104% |
| CC(=O)c1ccc(NC(=O)CSc2ncccc2C(=O)O)cc1 [CBK299798] | 94.4% |
| O=C(O)CCCNS(=O)(=O)c1ccc(C2CCCCC2)cc1 [CBK299800] | 95.2% |
| CC(C)CC(=O)Nc1ccc2nc(SCC(=O)O)sc2c1 [CBK299801] | 96.4% |
| COc1cccc(-c2csc(NS(=O)(=O)c3ccc(C)c(C(=O)O)c3)n2)c1 [CBK299803] | 99.1% |
| O=C(O)c1cc(S(=O)(=O)NCCCN2CCOCC2)ccc1Cl [CBK299804] | 96.8% |
| O=C(O)c1cc(/C=C/c2ccc(Br)cc2)nc2ccccc12 [CBK299805] | 94.3% |
| CC(=O)N(c1ccc2oc3c(c2c1)CCCC3)S(=O)(=O)c1ccc(C(=O)O)cc1 [CBK299808] | 92.5% |
| O=C(O)c1cccc(N2C(=O)c3cccc4c(C(=O)c5ccccc5)ccc(c34)C2=O)c1 [CBK299809] | 74.2% |
| CCOc1ccc(S(=O)(=O)Nc2ccc(O)c(C(=O)O)c2)cc1 [CBK299810] | 93.5% |
| Cc1ccc2cc(S(=O)(=O)Nc3cccc(C(=O)O)c3)ccc2c1 [CBK299812] | 101% |
| COc1cc(-c2nnc(CSCc3n[nH]c(=O)[nH]3)o2)cc(OC)c1OC [CBK299814] | 99.5% |
| Cc1nc(-c2ccc(NC(=O)C3CC=CCC3C(=O)O)cc2)cs1 (stereo not drawn) [CBK299815] | 99.4% |
| Cc1ccc2cc(S(=O)(=O)NCCCC(=O)O)ccc2c1 [CBK299818] | 95.8% |
| Cc1cc(C(C)(C)C)cc(S(=O)(=O)Nc2ccc(C(=O)O)c(O)c2)c1C [CBK299820] | 88.3% |
| O=C(Cc1ccc(F)cc1)Nc1cccc(-c2noc(-c3ccc(F)cc3)n2)c1 [CBK299821] | 89% |
| CC(C)COc1ccc(-c2nonc2NC(=O)c2cccs2)cc1 [CBK299822] | 103% |

| SMILES | viability at 28.5 h, 10 µM |
| --- | --- |
| O=C(O)c1ccc(NC(=O)c2cccc(NC(=O)c3cccc4ccccc34)c2)cc1 [CBK299823] | 101% |
| CC(C)c1ccc(NC(=O)CSc2n[nH]c(=O)n2-c2ccccc2)cc1 [CBK299826] | 89.3% |
| O=C(O)c1ccc(NS(=O)(=O)c2ccc3c(c2)C(=O)c2ccccc2C3=O)cc1 [CBK299828] | 88.3% |
| CC(C)COc1ccc(-c2nonc2NC(=O)c2ccccc2F)cc1 [CBK299831] | 86% |
| O=C(CSc1ncccc1C(=O)O)Nc1nnc(Cc2ccccc2)s1 [CBK299835] | 97.1% |
| O=C(O)c1cccc(N2C(=O)c3cccc4c(Cl)ccc(c34)C2=O)c1 [CBK299836] | 90.3% |
| CCOc1ccc(S(=O)(=O)Nc2ccc(C(=O)O)c(O)c2)cc1 [CBK299837] | 94.2% |
| CCN1C(=O)c2cccc3c(S(=O)(=O)Nc4cccc(C(=O)O)c4)ccc1c23 [CBK299838] | 97.5% |
| Cn1c(=O)n(C)c2cc(S(=O)(=O)Nc3ccc(Cl)c(C(=O)O)c3)ccc21 [CBK299841] | 90.8% |
| N#Cc1c(NC(=O)CSc2nnnn2-c2ccc(C(=O)O)cc2)sc2c1CCCC2 [CBK299876] | 87.6% |
| CC(C)c1ccc(-c2csc(Nc3cccc(C(=O)O)c3)n2)cc1 [CBK299880] | 104% |
| Cc1ccc(CN2CC(C(=O)N3CCC(C(=O)O)CC3)CC2=O)cc1 (stereo not drawn) [CBK300205] | 91.8% |
| COc1ccc(CSc2nnc(SCc3ccc(C(=O)O)cc3)s2)cc1 [CBK300477] | 104% |
| Clc1ccc(Cn2ncc3c(NCc4cccnc4)ncnc32)cc1 [CBK300478] | 94.9% |
| Cc1ccc(OCC(=O)N2CCN(C(=O)c3ccncc3)CC2)cc1 [CBK300480] | 92.3% |
| Cc1ccc2oc(-c3cccc(NC(=O)c4ccccc4C(=O)O)c3)nc2c1 [CBK300481] | 109% |
| N=C(N)NC1=NC(=O)C(CC(=O)Nc2ccc(Oc3ccccc3)cc2)S1 (stereo not drawn) [CBK300482] | 105% |
| Cc1ccc(OCCSc2nc3ccccc3n2CC(=O)O)c(C(C)C)c1 [CBK300483] | 105% |
| O=C(Nc1ncc(Cc2ccc(F)cc2)s1)c1csc2c1CCCC2 [CBK300489] | 90.2% |
| CCCCOc1ccc(C(=O)N/C(=C/c2ccco2)C(=O)Nc2cccc(C(=O)O)c2)cc1 [CBK300491] | 92.4% |
| CC(=O)NS(=O)(=O)c1ccc(NC(=O)/C=C/c2cccc([N+](=O)[O-])c2)cc1 [CBK300492] | 88.6% |

| SMILES | viability at 28.5 h, 10 µM |
| --- | --- |
| Cc1nc(NC(=O)c2c(F)cccc2F)sc1C [CBK300495] | 76.1% |
| COc1cc(CNc2nnn[nH]2)cc(Br)c1OCc1ccc(Cl)cc1 [CBK300496] | 87.2% |
| O=C(O)c1cc(-c2ccc(-c3ccc(Cl)c(C(F)(F)F)c3)o2)nc2ccc(F)cc12 [CBK300501] | 111% |
| O=C(CCc1ccc(-c2ccc(F)cc2)o1)Nc1ccc(C(=O)O)cc1 [CBK300502] | 99% |
| O=C(O)CCSCC(=O)c1ccc(NS(=O)(=O)c2ccccc2)cc1 [CBK300504] | 97.5% |
| CCOc1cccc2cc(-c3cc(=O)oc4cc(C)c(O)cc34)oc12 [CBK300517] | 95.9% |
| COc1ccc(S(=O)(=O)Nc2ccc3oc(-c4ccccc4F)cc(=O)c3c2)cc1 [CBK300518] | 90.1% |
| O=C(CSc1ncnc2[nH]ncc12)c1ccc(-c2ccccc2)cc1 [CBK300519] | 88.4% |
| Cc1ccc(C(=O)CSc2nc(O)c3nc[nH]c3n2)cc1 [CBK300520] | 119% |
| Cc1c(C(=O)O)sc2nc(SC/C=C/c3ccccc3)nc(N)c12 [CBK300523] | 83.4% |
| COCCNC(=O)c1nnn(-c2ccc(Br)cc2)c1C [CBK300524] | 93.3% |
| COc1ccc(OCc2nc(C)cc(=O)n2CC(=O)NC(C)C)cc1 [CBK300525] | 99% |
| Cc1c(C(=O)Nc2ccc(C(=O)O)cc2)nnn1-c1ccc(Cl)cc1 [CBK300532] | 84.4% |
| Cc1ccccc1OCC(=O)N1CC(=O)Nc2ccccc21 [CBK300535] | 94% |
| O=C(c1ccccc1)c1ccc2n1CCC2C(=O)N1CCN(c2ccccc2)CC1 (stereo not drawn) [CBK300536] | 115% |
| O=c1[nH]c(SCc2n[nH]c(=S)n2-c2ccccc2)nc2sc3c(c12)CCCC3 [CBK300538] | 118% |
| CCCCc1ccc(S(=O)(=O)c2cnc(SCC(=O)Nc3ccc(Cl)cc3)[nH]c2=O)cc1 [CBK300539] | 106% |
| O=c1[nH]nc2cc(SCc3ccc(Cl)cc3)ncn12 [CBK300540] | 107% |
| O=C(NCc1cccnc1)c1ccc(CSc2ccccc2)cc1 [CBK300544] | 101% |
| Cc1cc(=O)oc2cc(OCC(=O)Nc3ccc(S(=O)(=O)O)cc3)ccc12 [CBK301204N] | 89.6% |
| Nc1nc(SCc2nnc(S)n2-c2ccccc2)nc2sc3c(c12)CCC3 [CBK301216K] | 83.1% |

| SMILES | viability at 28.5 h, 10 µM |
| --- | --- |
| CC(C)[C@H]1N=C2C=C(C(C)(C)C)ON2[C@H]2[C@H](O)[C@H](O)C[C@H]21 [CBK303234] | 90.1% |
| CC(C)(C)C1=CC2=NC3(CCCCC3)[C@@H]3C[C@@H](O)[C@@H](O)[C@@H]3N2O1 [CBK303235] | 111% |
| Cn1c2c(c(=O)n(C)c1=O)[C@H]1[C@H](O)[C@H](O)C[C@H]1[C@@H](C(O)c1ccccc1)N2 (stereo partly drawn) [CBK303236] | 92.8% |
| Cn1c(/N=C(\C=N\c2cc(=O)n(C)c(=O)n2C)c2ccccc2)cc(=O)n(C)c1=O [CBK303237] | 87.3% |
| CC(C)(C)OC(=O)N1CC2(C1)N=C1C=C(C(C)(C)C)ON1[C@H]1[C@H](O)[C@H](O)C[C@H]12 [CBK303240] | 97.6% |
| CCOC(=O)c1nc2c(n1C)[C@H]1[C@H](O)[C@H](O)C[C@H]1C1(CCC1)N2 [CBK303241] | 107% |
| CC(=O)[C@H]1CC[C@H]2[C@@H]3CC[C@H]4CC5(CC[C@]4(C)[C@H]3CC[C@]12C)N=C1C=C(C(C)(C)C)ON1C1C=CCC15 (stereo partly drawn) [CBK303246] | 42.9% |
| Nc1nc(O)c2c(n1)NC1(CCC1)[C@@H]1C[C@@H](O)[C@@H](O)[C@H]21 [CBK303248] | 118% |
| COC(=O)c1csc2c1N[C@H](C1CC3C=CC1C3)[C@@H]1CCO[C@H]21 (stereo partly drawn) [CBK303251] | 94.9% |
| CC(C)(C)C1=CC2=NC3(CCCCCC3)[C@@H]3C[C@@H](O)[C@@H](O)[C@@H]3N2O1 [CBK303252] | 91.9% |
| Cc1c2c(n(-c3ccccc3)[n+]1[O-])NC1(CCC1)[C@@H]1C[C@@H](O)[C@@H](O)[C@H]21 [CBK303253] | 91.5% |
| CC(C)(C)C1=CC2=NC3(CCCCCCCCCCC3)[C@@H]3C[C@@H](O)[C@@H](O)[C@@H]3N2O1 [CBK303254] | 113% |
| COC(=O)c1csc2c1NC1(CCC1)[C@@H]1C[C@@H](O)[C@@H](O)[C@H]21 [CBK303255] | 119% |
| CC(C)(C)C1=CC2=NC3(CCCCCCC3)[C@@H]3C[C@@H](O)[C@@H](O)[C@@H]3N2O1 [CBK303256] | 113% |
| CC1=CC2=NC3(CCC3)[C@@H]3C[C@@H](O)[C@@H](O)[C@@H]3N2O1 [CBK303257] | 92% |
| CC(C)(C)C1=CC2=NC3(CCC3)C3C[C@](O)(COCc4ccccc4)[C@@H](O)[C@@H]3N2O1 (stereo partly drawn) [CBK303259] | 102% |
| CC(C)(C)C1=CC2=NC3(CCC3)C3C[C@@H](O)[C@@H](O)[C@]3(COCc3ccccc3)N2O1 (stereo partly drawn) [CBK303260] | 99.6% |
| CC(C)(C)C1=CC2=NC3(CCC3)C3C[C@](O)(Cc4ccccc4)[C@@H](O)[C@@H]3N2O1 (stereo partly drawn) [CBK303261] | 95.7% |
